Measured values published in patent US20100298141A1, “SUBSTITUTED PYRIDINE N-OXIDE HERBICIDES” (E. I. DU PONT DE NEMOURS AND COMPANY, priority 2007, published 2010).

System: Russian thistle
Test: Test C pre-/postemergence test
Type: in vivo, Salsola kali
Conditions: for Plant response rating, Russian Thistle: scale 0 to 100 (0 no effect, 100 complete control)
Description: Seeds of plant species selected from blackgrass (Alopecurus myosuroides), downy brome (Bromus tectorum), green foxtail (Setaria viridis), Italian ryegrass (Lolium multiflorum), wheat (Triticum aestivum), wild oat (Avena fatua), catchweed bedstraw (Galium aparine), Russian thistle (Salsola kali), […] (Cynodon dactylon), Surinam grass (Brachiaria decumbens), cocklebur (Xanthium strumarium), corn (Zea mays), crabgrass (Digitaria sanguinalis), woolly cupgrass (Eriochloa villosa), giant foxtail (Setaria faberii), Goosegrass (Eleusin indica), johnsongrass (Sorghum halepense), kochia (Kochia scoparia), lambsquarters (Chenopodium album), morningglory (Ipomoea coccinea), eastern black nightshade (Solanum ptycanthum), yellow nutsedge (Cyperus esculentus), pigweed (Amaranthus retroflexus), common ragweed (Ambrosia elation), soybean (Glycine max), common (oilseed) sunflower (Helianthus annuus), and velvetleaf (Abutilon theophrasti) were planted and treated preemergence with test chemicals formulated in a non-phytotoxic solvent mixture which included a surfactant. At the same time, plants selected from these crop and weed species and also winter barley (Hordeum vulgare), canarygrass (Phalaris minor), and chickweed (Stellaria media) were treated with postemergence applications of some of the test chemicals formulated in the same manner. Plants ranged in height from 2 to 18 cm (1- to 4-leaf stage) for postemergence treatments. […] At time of treatment, test pots were flooded to 3 cm above the soil surface, treated by application of test compounds directly to the paddy water, and then maintained at that water depth for the duration of the test. […] A dash (-) response means no test result.

[1] = 62 g ai/ha, Preemergence, scale 0 to 100
[2] = 125 g ai/ha, preemergence, scale 0 (no effect) to 100 (complete control)
[3] = preemergence, 250 g ai/ha, scale 0 (no effect) to 100 (complete control)

SMILES	Russian Thistle plant response rating (31 g ai/ha, Preemergence, scale 0 to 100)	Russian Thistle plant response rating (62 g ai/ha, preemergence, scale 0 (no effect) to 100 (complete control))	Plant response rating (0 to 100), Russian Thistle (Preemergence, 250 g ai/ha)	Russian Thistle plant response rating (preemergence, 125 g ai/ha, scale 0 (no effect) to 100 (complete control))	Russian Thistle plant response rating [1]	Russian Thistle plant response rating [2]	Plant response rating, Russian Thistle (Preemergence, 31 g ai/ha)	Russian Thistle plant response rating [3]
Cc1cc[n+]([O-])c(S(=O)(=O)C(C)c2c(C(F)(F)F)nn(C)c2Cl)c1 (racemic) [Compound 14]	80	100	100	100	–	–	–	–
Cn1nc(C(F)(F)F)c(C[S+]([O-])c2cc(Br)cc[n+]2[O-])c1Cl (racemic) [Compound 35]	–	–	–	–	100	100	100	100
Cn1nc(C(F)(F)F)c(C(Cl)S(=O)(=O)c2cccc[n+]2[O-])c1OC(F)F (stereo not drawn) [Compound 51]	–	–	–	–	100	100	40	100
CCc1cc[n+]([O-])c(S(=O)(=O)Cc2c(C(F)(F)F)nn(C)c2OC(F)F)c1 [Compound 102]	–	–	–	–	100	100	100	100
[O-][n+]1cc(Cl)ccc1[S+]([O-])Cc1c(C(F)(F)F)nn(CC(F)(F)F)c1Cl (stereo not drawn) [Compound 47]	–	–	–	–	–	0	–	100
